Here are results for 1 compound from PMC11206987, “Investigation of the Efficacy of Benzylidene-3-methyl-2-thioxothiazolidin-4-one Analogs with Antioxidant Activities on the Inhibition of Mushroom and Mammal Tyrosinases” (Molecules, 2024).

As usually defined, the IC50 is the concentration that inhibits the measured activity by half. What is called Ki is a dissociation constant, usually derived from enzyme kinetics or from competition with a known ligand.

In data set [1] the test system is mushroom tyrosinase. Nature of the data set: Mushroom tyrosinase inhibition assay (dopachrome, 475 nm). The data set is classed as biochemical. The conditions noted are these: for IC50: mushroom tyrosinase. On the procedure: The ability of the BMTTZD analogs to inhibit mushroom tyrosinase was evaluated in the presence of L-dopa and L-tyrosine as previously described.

In data set [2] the target is mushroom tyrosinase (Agaricus bisporus, UniProt C7FF04). The experiment in a line: Kinetic study of mushroom tyrosinase inhibition (Lineweaver–Burk and Dixon plots). Format: biochemical. On the procedure:
The initial rate of dopachrome generation was examined at various BMTTZD analog concentrations (0, 1.5, 3, and 6 µM for analog 1; 0, 2, 4, and 8 µM for analogs 2 and 5; and 0, 0.05, 0.1, and 0.2 µM for 3) with 0.5, 1, 2, 4, 8, or 16 mM L-dopa as substrates using mushroom tyrosinase. Plotting the reciprocal of the dopachrome formation rate against the inverse of the L-dopa concentration produced Lineweaver–Burk plots (Figure 2). Each Lineweaver–Burk plot created four straight lines with different slopes. For analogs 1 and 3, the four straight lines met at a point on the y-axis, whereas for analogs 2 and 5, the four straight lines converged at a point in the second quadrant.
The Dixon plots produced lines that met in the second quadrant. The x-coordinate of the convergence position represents the inhibition constant (Ki) of the ligand.
Lineweaver–Burk (L-B) plots were acquired for the kinetic analysis of analogs against mushroom tyrosinase as previously described. In brief, 10 µL of a solution of DMSO and BMTTZD analogs 1–3 or 5 (final concentrations: 0, 1.5, 3, and 6 µM for analog 1; 0, 2, 4, and 8 µM for analogs 2 and 5; and 0, 0.05, 0.1, and 0.2 µM for analog 3) in each well of a 96-well plate was mixed with 20 µL of aqueous mushroom tyrosinase solution (200 units/mL) and 170 µL of an aqueous substrate mixture (various concentrations of L-dopa (final concentrations: 16, 8, 4, 2, 1 and 0.5 mM) and 17.2 mM sodium phosphate buffer (pH 6.5)). During incubation (15 min at 37 °C), the increase in the well absorbance (ΔOD475/min) was calculated at 1 min intervals utilizing a VersaMax® reader.

Data set [3] is described as follows: DPPH radical scavenging activity assay. The conditions noted are these: 500 µM. As to the method:
First, the ability of BMTTZD analogs 1–8 to scavenge DPPH radicals was examined using L-ascorbic acid (vitamin C; positive control). All samples were tested at 500 µM.
The ability of the BMTTZD analogs to scavenge DPPH radicals was evaluated as previously reported. To each well of a 96-well plate containing analogs 1–8 (5 mM in […]; 20 µL) was added a DPPH solution (0.2 mM in methanol; 180 µL). The mixture was kept in a place without light for 30 min at 25°C to generate DPPH radicals. The well absorbance at 517 nm was measured utilizing a VersaMax® reader. The ability of the analogs to remove DPPH radicals was compared to that of vitamin C.
(In general: Loss of DPPH colour is used to gauge radical scavenging.)

The subject of the next data set is B16F10 cells. The experiment in a line: Cell cytotoxicity test (EZ-Cytox). Format: cell-based, murine. The conditions noted are these: 2.5–20 µM, 48 and 72 h. On the procedure:
Because analogs 1–3 and 5 exerted potent mushroom tyrosinase inhibitory activities, their effects on anti-melanogenic and cellular tyrosinase activities were evaluated in B16F10 murine cells. Prior to examining their cellular activity, their cell viabilities were investigated. Cell viability was evaluated at 48 and 72 h after treatment with five different concentrations of analogs.
The effect on B16F10 cytotoxicity was assessed following a previously described method. Cells (1 × 10^4 cells/well of a 96-well plate) were cultivated for 24 h with 5% CO2 at 37 °C. The cells were exposed to the BMTTZD analogs (test concentrations: 20, 10, 5, 2.5, and 0 µM) and cultivated with 5% CO2 at 37 °C for 72 h. An EZ-Cytox solution (10 µL; EZ-500, DoGenBio, Seoul, Republic of Korea) was exposed to each well, and the plate was cultivated for 2 h. Cell viability was calculated from the well absorbance measured at 450 nm utilizing a reader (VersaMax®).

Data set [4] concerns the target T1, B16F10 cellular tyrosinase (Mus musculus, UniProt P11344).
T1 construct: host or cells: B16F10 cells
T1 sequence (P11344 19-533): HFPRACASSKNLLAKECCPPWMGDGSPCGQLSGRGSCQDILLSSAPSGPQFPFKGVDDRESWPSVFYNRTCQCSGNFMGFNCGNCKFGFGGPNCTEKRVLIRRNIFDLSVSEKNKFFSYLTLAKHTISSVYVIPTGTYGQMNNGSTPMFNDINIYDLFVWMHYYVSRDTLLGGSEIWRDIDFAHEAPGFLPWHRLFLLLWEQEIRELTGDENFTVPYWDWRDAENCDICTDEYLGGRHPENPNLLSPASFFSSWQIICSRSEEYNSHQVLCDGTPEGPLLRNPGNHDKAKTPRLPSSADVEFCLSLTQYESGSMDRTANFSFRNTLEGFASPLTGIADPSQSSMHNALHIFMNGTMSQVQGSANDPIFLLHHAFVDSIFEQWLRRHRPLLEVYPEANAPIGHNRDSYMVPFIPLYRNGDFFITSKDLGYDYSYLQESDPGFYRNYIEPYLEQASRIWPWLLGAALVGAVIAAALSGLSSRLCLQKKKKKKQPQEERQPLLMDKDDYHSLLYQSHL
Nature of the data set: In situ cellular tyrosinase activity assay using L-dopa staining. The data set is classed as cell-based, murine. The conditions noted are these: 72 h. As to the method:
Because tyrosinase plays a critical role in melanogenesis, in situ intracellular tyrosinase activity was measured. The in situ intracellular tyrosinase activity was evaluated in B16F10 cells following a previously reported procedure. Stimulators (α-MSH plus IBMX) were exposed to cells to raise tyrosinase activity levels, and analogs 1, 3, and 5 were treated at 20, 10, and 5 µM for 72 h. After fixation and permeabilization using paraformaldehyde and Triton X-100, the cells were stained with L-dopa.
A 24-well plate containing 1 × 10^3 B16F10 cells/well was cultivated for 24 h under conditions identical to those of the cell culture. […] The cells were then cultivated under conditions identical to those of the cell culture for 72 h. Cultivated cells were fixed for 40 min with paraformaldehyde (4%), washed 2 times with PBS, and permeabilized with Triton X-100 (0.1%) for 2 min. After washing 2 times with PBS, the cells in the 24-well plate were stained with a 2 mM L-dopa aqueous solution (500 µL/well) for 2 h at 37 °C. Staining was photographed and analyzed utilizing a camera connected to a microscope (Motic, Hong Kong).

Like-named read-outs stand apart in the source and are kept apart here.

mushroom tyrosinase (Agaricus bisporus, UniProt C7FF04), sequence (C7FF04 1-392): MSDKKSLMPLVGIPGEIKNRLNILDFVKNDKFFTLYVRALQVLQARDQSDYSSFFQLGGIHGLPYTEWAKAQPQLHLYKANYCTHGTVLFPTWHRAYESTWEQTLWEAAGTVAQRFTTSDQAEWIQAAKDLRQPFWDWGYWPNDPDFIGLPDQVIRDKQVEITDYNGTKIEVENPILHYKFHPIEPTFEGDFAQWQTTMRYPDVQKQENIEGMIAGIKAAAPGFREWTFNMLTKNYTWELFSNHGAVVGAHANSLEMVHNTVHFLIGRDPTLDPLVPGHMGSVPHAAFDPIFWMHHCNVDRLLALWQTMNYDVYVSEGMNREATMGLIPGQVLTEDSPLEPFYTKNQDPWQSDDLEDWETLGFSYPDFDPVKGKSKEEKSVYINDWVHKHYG

As for `CN1C(=O)/C(=C/c2ccc(O)cc2O)SC1=S` [Analog 3, (Z)-5-(2,4-Dihydroxybenzylidene)-3-methyl-2-thioxothiazolidin-4-one], the “tyrosinase inhibition, fold stronger than kojic acid” value in the data set on mushroom tyrosinase [1] (substrate L-dopa) is 22 fold. In addition, the IC50 on mushroom tyrosinase [1] (substrate L-dopa, read-out: IC50 (Mean ± SEM, µM) L-Dopa) stood at 1.12 ± 0.06 µM; on mushroom tyrosinase [1] (substrate L-tyrosine, read-out: IC50 (Mean ± SEM, µM) L-Tyrosine), 0.08 ± 0.02 µM. Further, the “tyrosinase inhibition, times stronger than kojic acid” value with mushroom tyrosinase [1] (substrate L-tyrosine) is 220 times. Moreover, the “type of tyrosinase inhibition (Lineweaver–Burk plots)” value on mushroom tyrosinase [2] (substrate L-dopa 0.5–16 mM) is on record as “competitive inhibitors”. Also, the inhibitory constant (Ki) on mushroom tyrosinase [2] (substrate L-dopa, read-out: inhibition constant (Ki) from Dixon plots) stood at 47 nM. Moreover, the “DPPH radical scavenging activity” value in data set [3] came to 82%. Moreover, the “cytotoxicity (cell viability)” value in the data set with B16F10 cells is recorded as “did not exhibit cytotoxicity at ≤20 µM”. For the same compound, in data set [4] (20 µM), the “in situ intracellular tyrosinase inhibition compared with kojic acid” value is “tyrosinase inhibition stronger than did kojic acid”. Also, the “effect on stimulator-raised in situ intracellular tyrosinase activity (L-dopa staining)” value in data set [4] (analogs 5, 10, 20 µM, kojic acid 20 µM) is reported as “concentration-dependently reduced the stimulator-enhanced intracellular tyrosinase inhibition”.
